In the supplement of paper PMC10307832:

Columns and labels:
Assay in all cases: relative viability (nuclei count vs DMSO), 5 days (fraction); higher = more cells survive
Doxorubicin + Pictilisib = compound: COc1cccc2c1C(=O)c1c(O)c3c(c(O)c1C2=O)C[C@@](O)(C(=O)CO)C[C@@H]3O[C@H]1C[C@H](N)[C@H](O)[C@H](C)O1 [Doxorubicin] + CS(=O)(=O)N1CCN(Cc2cc3nc(-c4cccc5[nH]ncc45)nc(N4CCOCC4)c3s2)CC1 [Pictilisib] (partner 1 µM)
Procedure, shortened: (§1)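 Each reported value is a median over duplicate plates. It expresses relative viability: treated-well nuclei count divided by vehicle-well nuclei count. Lung cancer cell lines in 1536-well plates were dosed by pin tool a day after seeding, alone with one drug or with a fixed anchor-drug dose plus five library-drug doses (not always all listed) in √10 steps, and nuclei were counted after 5 days.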

BAY61-3606 + Luminespib = compound: COC1=C(C=C(C=C1)C2=CC3=NC=CN3C(=N2)NC4=C(C=CC=N4)C(=O)N)OC [BAY61-3606] + CCNC(=O)c1noc(-c2cc(C(C)C)c(O)cc2O)c1-c1ccc(CN2CCOCC2)cc1 [Luminespib] (partner 0.01 µM)
Procedure, shortened: as §1

BAY61-3606 + Trametinib = compound: COC1=C(C=C(C=C1)C2=CC3=NC=CN3C(=N2)NC4=C(C=CC=N4)C(=O)N)OC [BAY61-3606] + CC(=O)Nc1cccc(-n2c(=O)n(C3CC3)c(=O)c3c(Nc4ccc(I)cc4F)n(C)c(=O)c(C)c32)c1 [Trametinib] (partner 0.02 µM)
Procedure, shortened: as §1

Doxorubicin + Olaparib = compound: COc1cccc2c1C(=O)c1c(O)c3c(c(O)c1C2=O)C[C@@](O)(C(=O)CO)C[C@@H]3O[C@H]1C[C@H](N)[C@H](O)[C@H](C)O1 [Doxorubicin] + O=C(c1cc(Cc2n[nH]c(=O)c3ccccc23)ccc1F)N1CCN(C(=O)C2CC2)CC1 [Olaparib] (partner 8 µM)
Procedure, shortened: as §1

NCI-H23
relative viability (Doxorubicin + Pictilisib; first compound 0.003162 µM): 0.475
relative viability (Doxorubicin + Pictilisib; first compound 0.01 µM): 0.462
relative viability (Doxorubicin + Pictilisib; first compound 0.03162 µM): 0.375
relative viability (Doxorubicin + Pictilisib; first compound 0.1 µM): 0.401
relative viability (BAY61-3606 + Luminespib; first compound 0.02 µM): 0.212
relative viability (BAY61-3606 + Luminespib; first compound 0.06325 µM): 0.213
relative viability (BAY61-3606 + Luminespib; first compound 0.2 µM): 0.214
relative viability (BAY61-3606 + Luminespib; first compound 0.6325 µM): 0.232
relative viability (BAY61-3606 + Luminespib; first compound 2 µM): 0.207
relative viability (BAY61-3606 + Trametinib; first compound 0.02 µM): 0.437
relative viability (BAY61-3606 + Trametinib; first compound 0.06325 µM): 0.347
relative viability (BAY61-3606 + Trametinib; first compound 0.2 µM): 0.348
relative viability (BAY61-3606 + Trametinib; first compound 0.6325 µM): 0.393
relative viability (BAY61-3606 + Trametinib; first compound 2 µM): 0.372
relative viability (Doxorubicin + Olaparib; first compound 0.001 µM): 0.356
relative viability (Doxorubicin + Olaparib; first compound 0.003162 µM): 0.373
relative viability (Doxorubicin + Olaparib; first compound 0.01 µM): 0.293
relative viability (Doxorubicin + Olaparib; first compound 0.03162 µM): 0.334
relative viability (Doxorubicin + Olaparib; first compound 0.1 µM): 0.32

NCI-H322M
relative viability (Doxorubicin + Pictilisib; first compound 0.001 µM): 0.589
relative viability (Doxorubicin + Pictilisib; first compound 0.003162 µM): 0.448
relative viability (Doxorubicin + Pictilisib; first compound 0.01 µM): 0.546
relative viability (Doxorubicin + Pictilisib; first compound 0.03162 µM): 0.561
relative viability (Doxorubicin + Pictilisib; first compound 0.1 µM): 0.564
relative viability (BAY61-3606 + Luminespib; first compound 0.02 µM): 0.879
relative viability (BAY61-3606 + Luminespib; first compound 0.06325 µM): 0.806
relative viability (BAY61-3606 + Luminespib; first compound 0.2 µM): 0.818
relative viability (BAY61-3606 + Luminespib; first compound 0.6325 µM): 0.819
relative viability (BAY61-3606 + Luminespib; first compound 2 µM): 0.742
relative viability (BAY61-3606 + Trametinib; first compound 0.02 µM): 0.533
relative viability (BAY61-3606 + Trametinib; first compound 0.06325 µM): 0.522
relative viability (BAY61-3606 + Trametinib; first compound 0.2 µM): 0.542
relative viability (BAY61-3606 + Trametinib; first compound 0.6325 µM): 0.499
relative viability (BAY61-3606 + Trametinib; first compound 2 µM): 0.486
relative viability (Doxorubicin + Olaparib; first compound 0.001 µM): 0.731
relative viability (Doxorubicin + Olaparib; first compound 0.003162 µM): 0.765
relative viability (Doxorubicin + Olaparib; first compound 0.01 µM): 0.745
relative viability (Doxorubicin + Olaparib; first compound 0.03162 µM): 0.542
relative viability (Doxorubicin + Olaparib; first compound 0.1 µM): 0.508

NCI-H358
relative viability (Doxorubicin + Pictilisib; first compound 0.001 µM): 0.441
relative viability (Doxorubicin + Pictilisib; first compound 0.003162 µM): 0.349
relative viability (Doxorubicin + Pictilisib; first compound 0.01 µM): 0.273
relative viability (Doxorubicin + Pictilisib; first compound 0.03162 µM): 0.175
relative viability (Doxorubicin + Pictilisib; first compound 0.1 µM): 0.181
relative viability (BAY61-3606 + Luminespib; first compound 0.02 µM): 0.428
relative viability (BAY61-3606 + Luminespib; first compound 0.06325 µM): 0.249
relative viability (BAY61-3606 + Luminespib; first compound 0.2 µM): 0.322
relative viability (BAY61-3606 + Luminespib; first compound 0.6325 µM): 0.289
relative viability (BAY61-3606 + Luminespib; first compound 2 µM): 0.205
relative viability (BAY61-3606 + Trametinib; first compound 0.02 µM): 0.137
relative viability (BAY61-3606 + Trametinib; first compound 0.06325 µM): 0.158
relative viability (BAY61-3606 + Trametinib; first compound 0.2 µM): 0.143
relative viability (BAY61-3606 + Trametinib; first compound 0.6325 µM): 0.146
relative viability (BAY61-3606 + Trametinib; first compound 2 µM): 0.0995
relative viability (Doxorubicin + Olaparib; first compound 0.001 µM): 0.592
relative viability (Doxorubicin + Olaparib; first compound 0.003162 µM): 0.535
relative viability (Doxorubicin + Olaparib; first compound 0.01 µM): 0.347
relative viability (Doxorubicin + Olaparib; first compound 0.03162 µM): 0.12
relative viability (Doxorubicin + Olaparib; first compound 0.1 µM): 0.116

NCI-H441
relative viability (Doxorubicin + Pictilisib; first compound 0.001 µM): 0.434
relative viability (Doxorubicin + Pictilisib; first compound 0.003162 µM): 0.521
relative viability (Doxorubicin + Pictilisib; first compound 0.01 µM): 0.404
relative viability (Doxorubicin + Pictilisib; first compound 0.03162 µM): 0.292
relative viability (Doxorubicin + Pictilisib; first compound 0.1 µM): 0.323
relative viability (BAY61-3606 + Luminespib; first compound 0.02 µM): 0.258
relative viability (BAY61-3606 + Luminespib; first compound 0.06325 µM): 0.31
relative viability (BAY61-3606 + Luminespib; first compound 0.2 µM): 0.369
relative viability (BAY61-3606 + Luminespib; first compound 0.6325 µM): 0.335
relative viability (BAY61-3606 + Luminespib; first compound 2 µM): 0.302
relative viability (BAY61-3606 + Trametinib; first compound 0.02 µM): 0.491
relative viability (BAY61-3606 + Trametinib; first compound 0.06325 µM): 0.417
relative viability (BAY61-3606 + Trametinib; first compound 0.2 µM): 0.363
relative viability (BAY61-3606 + Trametinib; first compound 0.6325 µM): 0.483
relative viability (BAY61-3606 + Trametinib; first compound 2 µM): 0.371
relative viability (Doxorubicin + Olaparib; first compound 0.001 µM): 0.545
relative viability (Doxorubicin + Olaparib; first compound 0.003162 µM): 0.518
relative viability (Doxorubicin + Olaparib; first compound 0.01 µM): 0.511
relative viability (Doxorubicin + Olaparib; first compound 0.03162 µM): 0.235
relative viability (Doxorubicin + Olaparib; first compound 0.1 µM): 0.239

NCI-H460
relative viability (Doxorubicin + Pictilisib; first compound 0.001 µM): 0.246
relative viability (Doxorubicin + Pictilisib; first compound 0.003162 µM): 0.393
relative viability (Doxorubicin + Pictilisib; first compound 0.01 µM): 0.392
relative viability (Doxorubicin + Pictilisib; first compound 0.03162 µM): 0.309
relative viability (Doxorubicin + Pictilisib; first compound 0.1 µM): 0.249
relative viability (BAY61-3606 + Luminespib; first compound 0.02 µM): 0.0381
relative viability (BAY61-3606 + Luminespib; first compound 0.06325 µM): 0.0387
relative viability (BAY61-3606 + Luminespib; first compound 0.2 µM): 0.0289
relative viability (BAY61-3606 + Luminespib; first compound 0.6325 µM): 0.0296
relative viability (BAY61-3606 + Luminespib; first compound 2 µM): 0.0322
relative viability (BAY61-3606 + Trametinib; first compound 0.02 µM): 0.153
relative viability (BAY61-3606 + Trametinib; first compound 0.06325 µM): 0.173
relative viability (BAY61-3606 + Trametinib; first compound 0.2 µM): 0.134
relative viability (BAY61-3606 + Trametinib; first compound 0.6325 µM): 0.117
relative viability (BAY61-3606 + Trametinib; first compound 2 µM): 0.104
relative viability (Doxorubicin + Olaparib; first compound 0.001 µM): 0.366
relative viability (Doxorubicin + Olaparib; first compound 0.003162 µM): 0.419
relative viability (Doxorubicin + Olaparib; first compound 0.01 µM): 0.346
relative viability (Doxorubicin + Olaparib; first compound 0.03162 µM): 0.114
relative viability (Doxorubicin + Olaparib; first compound 0.1 µM): 0.0883

NCI-H520
relative viability (Doxorubicin + Pictilisib; first compound 0.001 µM): 0.264
relative viability (Doxorubicin + Pictilisib; first compound 0.003162 µM): 0.326
relative viability (Doxorubicin + Pictilisib; first compound 0.01 µM): 0.228
relative viability (Doxorubicin + Pictilisib; first compound 0.03162 µM): 0.239
relative viability (Doxorubicin + Pictilisib; first compound 0.1 µM): 0.191
relative viability (BAY61-3606 + Luminespib; first compound 0.02 µM): 0.216
relative viability (BAY61-3606 + Luminespib; first compound 0.06325 µM): 0.237
relative viability (BAY61-3606 + Luminespib; first compound 0.2 µM): 0.258
relative viability (BAY61-3606 + Luminespib; first compound 0.6325 µM): 0.231
relative viability (BAY61-3606 + Luminespib; first compound 2 µM): 0.223
relative viability (BAY61-3606 + Trametinib; first compound 0.02 µM): 0.685
relative viability (BAY61-3606 + Trametinib; first compound 0.06325 µM): 0.704
relative viability (BAY61-3606 + Trametinib; first compound 0.2 µM): 0.751
relative viability (BAY61-3606 + Trametinib; first compound 0.6325 µM): 0.85
relative viability (BAY61-3606 + Trametinib; first compound 2 µM): 0.644
relative viability (Doxorubicin + Olaparib; first compound 0.001 µM): 0.318
relative viability (Doxorubicin + Olaparib; first compound 0.003162 µM): 0.337
relative viability (Doxorubicin + Olaparib; first compound 0.01 µM): 0.313
relative viability (Doxorubicin + Olaparib; first compound 0.03162 µM): 0.248
relative viability (Doxorubicin + Olaparib; first compound 0.1 µM): 0.297

NCI-H596
relative viability (Doxorubicin + Pictilisib; first compound 0.001 µM): 0.353
relative viability (Doxorubicin + Pictilisib; first compound 0.003162 µM): 0.436
relative viability (Doxorubicin + Pictilisib; first compound 0.01 µM): 0.41
relative viability (Doxorubicin + Pictilisib; first compound 0.03162 µM): 0.44
relative viability (Doxorubicin + Pictilisib; first compound 0.1 µM): 0.379
relative viability (BAY61-3606 + Luminespib; first compound 0.02 µM): 0.941
relative viability (BAY61-3606 + Luminespib; first compound 0.06325 µM): 1.14
relative viability (BAY61-3606 + Luminespib; first compound 0.2 µM): 0.929
relative viability (BAY61-3606 + Luminespib; first compound 0.6325 µM): 1.3
relative viability (BAY61-3606 + Luminespib; first compound 2 µM): 0.62
relative viability (BAY61-3606 + Trametinib; first compound 0.02 µM): 0.879
relative viability (BAY61-3606 + Trametinib; first compound 0.06325 µM): 0.793
relative viability (BAY61-3606 + Trametinib; first compound 0.2 µM): 0.701
relative viability (BAY61-3606 + Trametinib; first compound 0.6325 µM): 1.01
relative viability (BAY61-3606 + Trametinib; first compound 2 µM): 0.696
relative viability (Doxorubicin + Olaparib; first compound 0.001 µM): 0.593
relative viability (Doxorubicin + Olaparib; first compound 0.003162 µM): 0.667
relative viability (Doxorubicin + Olaparib; first compound 0.01 µM): 0.685
relative viability (Doxorubicin + Olaparib; first compound 0.03162 µM): 0.647
relative viability (Doxorubicin + Olaparib; first compound 0.1 µM): 0.651
